Source: patent US11236122B2, “Triterpene amine derivatives” (DFH THERAPEUTICS, priority 2018, dated 2022)
Structures can show the parent of a compound that is named as a salt.

Tests used:
[1] = test system: WT pNL4-3; assay: CA-SP1 accumulation assay, WT NL4-3; type: cell-based, HIV-1; conditions: HeLa or 293T cells; for % CA-SP1 Accumulation 10 nM NL4-3: 10 nM compound; for % CA-SP1 Accumulation 100 nM NL4-3: 100 nM compound
Procedure: (§1) Cell culture, plasmids and transfections. The MT-4 T-cell line was maintained in RPMI-1640 medium supplemented with 10% (vol/vol) fetal bovine serum (FBS), 2 mM glutamine, 100 U/mL penicillin and 100 μg/mL streptomycin at 37° C. in a humidified 5% CO2 atmosphere. HeLa and 293T cells were maintained in Dulbecco's modified Eagle's medium (DMEM) supplemented with 5% (vol/vol) FBS, 2 mM glutamine, 100 U/mL penicillin and 100 μg/mL streptomycin. Molecular clones used in this study were WT pNL4-3 and the derivative encoding a Val-to-Ala mutation at SP1 residue 7, referred to as SP1-V7A. The MT-4 T-cell line was transfected the DEAE/dextran procedure; HeLa and 293T cells were transfected with linear polyethylenimine (L-PEI) or Lipofectamine 2000 (Invitrogen) as recommended by the supplier.
(§2) CA-SP1 accumulation assay. For CA-SP1 accumulation assays, HeLa or 293T cells were transfected with WT pNL4-3 or the SP1-V7A derivative. At 24 h post-transfection, cells were starved in Met/Cys-free medium for 30 min and metabolically labeled with [^35S]Met/Cys-Pro-mix (Amersham) for 2-3 h. Maturation inhibitors were maintained in the cultures throughout the transfection and labeling period. Viruses were collected by ultracentrifugation at 99,000×g for 45-60 min. Virus pellets were resuspended in Triton X-100 lysis buffer [300 mM NaCl, 50 mM Tris-HCl (pH 7.5), 0.5% Triton X-100, 10 mM iodoacetamide, and protease inhibitor cocktail tablets (Roche)]. CA and CA-SP1 proteins were separated on 13.5-15% polyacrylamide gels by SDS-polyacrylamide gel electrophoresis, exposed to a phosphorimager plate (Fuji) and quantified by Quantity One software (Bio-Rad).

[2] = test system: pNL4-3 SP1-V7A; assay: CA-SP1 accumulation assay, SP1-V7A derivative; type: cell-based, HIV-1; conditions: HeLa or 293T cells; for % CA-SP1 Accumulation 10 nM SP1 V7A: 10 nM compound; for % CA-SP1 Accumulation 100 nM SP1 V7A: 100 nM compound
Procedure: as §1, §2

Structure (SMILES) | % CA-SP1 Accumulation 10 nM NL4-3 [1] | % CA-SP1 Accumulation 10 nM SP1 V7A [2] | % CA-SP1 Accumulation 100 nM NL4-3 [1] | % CA-SP1 Accumulation 100 nM SP1 V7A [2]
C=C(C)[C@@H]1CC[C@]2(CCNCCN3CCN(CC4CCCCC4)CC3)CC[C@]3(C)[C@H](CC[C@@H]4[C@@]5(C)CC[C@H](OC(=O)CC(C)(C)C(=O)O)C(C)(C)[C@@H]5CC[C@]43C)[C@@H]12 [Compound 51s, (3β)-17-[2-[[2-[4-(Cyclohexylmethyl)piperazin-1-yl]ethyl]amino]ethyl]-28-norlup-20(29)-en-3-ol, 3-(1-Hydrogen 2,2-Dimethylbutanedioate)] | 48.7% | 14.5% | – | –
C=C(C)[C@@H]1CC[C@]2(CCNCCCN3CCCC3=O)CC[C@]3(C)[C@H](CC[C@@H]4[C@@]5(C)CC[C@H](OC(=O)CC(C)(C)CC(=O)O)C(C)(C)[C@@H]5CC[C@]43C)[C@@H]12 [Compound 51a, (3β)-17-[2-[[3-(2-Oxopyrrolidin-1-yl)propyl]amino]ethyl]-28-norlup-20(29)-en-3-ol, 3-(Hydrogen 3,3-Dimethylpentanedioate)] | – | – | 62.0% | 18.0%
C=C(C)[C@@H]1CC[C@]2(CCNCCN3CCC(O)CC3)CC[C@]3(C)[C@H](CC[C@@H]4[C@@]5(C)CC[C@H](OC(=O)CC(C)(C)C(=O)O)C(C)(C)[C@@H]5CC[C@]43C)[C@@H]12 [Compound 51ii, (3β)-17-[2-[[2-(4-Hydroxypiperidin-1-yl)ethyl]amino]ethyl]-28-norlup-20(29)-en-3-ol, 3-(1-Hydrogen 2,2-Dimethylbutanedioate)] | 70.1% | 29.5 (3) % | – | –
C=C(C)[C@@H]1CC[C@]2(CCNCCCN3CCN(CCOC)CC3)CC[C@]3(C)[C@H](CC[C@@H]4[C@@]5(C)CC[C@H](OC(=O)CC(C)(C)CC(=O)O)C(C)(C)[C@@H]5CC[C@]43C)[C@@H]12 [Compound 51e, (3β)-17-[2-[[3-[4-(2-Methoxyethyl)piperazin-1-yl]propyl]amino]ethyl]-28-norlup-20(29)-en-3-ol, 3-(Hydrogen 3,3-Dimethylpentanedioate)] | – | – | 70.4 (3) % | 23.1 (3) %
C=C(C)[C@@H]1CC[C@]2(CCNCCN3CCN(Cc4ccc5ccccc5n4)CC3)CC[C@]3(C)[C@H](CC[C@@H]4[C@@]5(C)CC[C@H](OC(=O)CC(C)(C)C(=O)O)C(C)(C)[C@@H]5CC[C@]43C)[C@@H]12 [Compound 51t, (3β)-17-[2-[[2-[4-(2-Quinolinylmethyl)piperazin-1-yl]ethyl]amino]ethyl]-28-norlup-20(29)-en-3-ol, 3-(1-Hydrogen 2,2-Dimethylbutanedioate)] | 56.1% | 18.6% | – | –
C=C(C)[C@@H]1CC[C@]2(CNCCCN3CCCC3)CC[C@]3(C)[C@H](CC[C@@H]4[C@@]5(C)CC[C@H](OC(=O)CC(C)(C)C(=O)O)C(C)(C)[C@@H]5CC[C@]43C)[C@@H]12 [Compound 51v, (3β)-28-[[3-(1-Pyrrolidinyl)propyl]amino]lup-20(29)-en-3-ol, 3-(1-Hydrogen 2,2-Dimethylbutanedioate) Sulfate] | 21.9% | 10.3% | 57.2% | 26.9%
CC(C)(CC(=O)O[C@H]1CC[C@]2(C)[C@H]3CC[C@@H]4[C@H]5[C@H](C6(C)CC6)CC[C@]5(CCNCCN5CCCC5)CC[C@@]4(C)[C@]3(C)CC[C@H]2C1(C)C)C(=O)O [Compound 51h, (3β)-17-[2-[[2-(1-Pyrrolidinyl)ethyl]amino]ethyl]-20,29-methano-28-norlupan-3-ol, 3-(1-Hydrogen 2,2-Dimethylbutanedioate)] | – | – | 70.1% | 20.1%
C=C(C)[C@@H]1CC[C@]2(CCNCCC(=O)N3CCN(C)CC3)CC[C@]3(C)[C@H](CC[C@@H]4[C@@]5(C)CC[C@H](OC(=O)CC(C)(C)CC(=O)O)C(C)(C)[C@@H]5CC[C@]43C)[C@@H]12 [Compound 51b, (3β)-17-[2-[[3-(4-Methylpiperazin-1-yl)-3-oxopropyl]amino]ethyl]-28-norlup-20(29)-en-3-ol, 3-(Hydrogen 3,3-Dimethylpentanedioate)] | – | – | 58.0% | 21.0%
CCN1CCC(NCC[C@]23CC[C@@H](C4(C)CC4)[C@@H]2[C@H]2CC[C@@H]4[C@@]5(C)CC[C@H](OC(=O)CC(C)(C)C(=O)O)C(C)(C)[C@@H]5CC[C@@]4(C)[C@]2(C)CC3)CC1 [Compound 51k] | – | – | 55.0 (2) % | 27.3 (2) %
C=C(C)[C@@H]1CC[C@]2(CCNCCCN3CCN(CCO)CC3)CC[C@]3(C)[C@H](CC[C@@H]4[C@@]5(C)CC[C@H](OC(=O)CC(C)(C)CC(=O)O)C(C)(C)[C@@H]5CC[C@]43C)[C@@H]12 [Compound 51d, (3β)-17-[2-[[3-[4-(2-Hydroxyethyl)piperazin-1-yl]propyl]amino]ethyl]-28-norlup-20(29)-en-3-ol, 3-(Hydrogen 3,3-Dimethylpentanedioate)] | – | – | 71.6 (3) % | 20.4 (3) %
C=C(C)[C@@H]1CC[C@]2(CCNCCN3CCN(Cc4ccccn4)CC3)CC[C@]3(C)[C@H](CC[C@@H]4[C@@]5(C)CC[C@H](OC(=O)CC(C)(C)C(=O)O)C(C)(C)[C@@H]5CC[C@]43C)[C@@H]12 [Compound 51u, (3β)-17-[2-[[2-[4-(2-Pyridinylmethyl)piperazin-1-yl]ethyl]amino]ethyl]-28-norlup-20(29)-en-3-ol, 3-(1-Hydrogen 2,2-Dimethylbutanedioate)] | 53.8% | 30.2 (2) % | – | –
CN(C)CCCCNCC[C@]12CC[C@@H](C3(C)CC3)[C@@H]1[C@H]1CC[C@@H]3[C@@]4(C)CC[C@H](OC(=O)CC(C)(C)C(=O)O)C(C)(C)[C@@H]4CC[C@@]3(C)[C@]1(C)CC2 [Compound 51j, (3β)-17-[2-[[(4-Dimethylamino)butyl]amino]ethyl]-20,29-methano-28-norlupan-3-ol, 3-(1-Hydrogen 2,2-Dimethylbutanedioate)] | – | – | 53.6% | 6.4%
C=C(C)[C@@H]1CC[C@]2(CCCNCCCN3CCCC3)CC[C@]3(C)[C@H](CC[C@@H]4[C@@]5(C)CC[C@H](OC(=O)CC(C)(C)C(=O)O)C(C)(C)[C@@H]5CC[C@]43C)[C@@H]12 [Compound 51aa, (3β)-17-[3-[[3-(1-Pyrrolidinyl)propyl]amino]propyl]-28-norlup-20(29)-en-3-ol, 3-(1-Hydrogen 2,2-Dimethylbutanedioate) Sulfate] | 12.5% | 5.3% | 45.2% | 14.4%
C=C(C)[C@@H]1CC[C@]2(CCNCCN3CCC(S(C)(=O)=O)CC3)CC[C@]3(C)[C@H](CC[C@@H]4[C@@]5(C)CC[C@H](OC(=O)CC(C)(C)C(=O)O)C(C)(C)[C@@H]5CC[C@]43C)[C@@H]12 [Compound 51gg, (3β)-17-[2-[[2-[4-(Methylsulfonyl)piperidin-1-yl]ethyl]amino]ethyl]-28-norlup-20(29)-en-3-ol, 3-(1-Hydrogen 2,2-Dimethylbutanedioate)] | 57.7% | 30.9% | – | –
C=C(C)[C@@H]1CC[C@]2(CCCNCCN3CCS(=O)(=O)CC3)CC[C@]3(C)[C@H](CC[C@@H]4[C@@]5(C)CC[C@H](OC(=O)CC(C)(C)C(=O)O)C(C)(C)[C@@H]5CC[C@]43C)[C@@H]12 [Compound 51dd, (3β)-17-[[[3-[2-(1,1-Dioxothiomorpholin-4-yl)]Ethyl]Amino]Propyl]-28-norlup-20(29)-en-3-ol, 3-(1-Hydrogen 2,2-Dimethylbutanedioate) Sulfate] | 8.2% | 5.9% | 9.7% | 7.3%
C=C(C)[C@@H]1CC[C@]2(CCNCCN3CCN(Cc4ccc(F)cc4)CC3)CC[C@]3(C)[C@H](CC[C@@H]4[C@@]5(C)CC[C@H](OC(=O)CC(C)(C)C(=O)O)C(C)(C)[C@@H]5CC[C@]43C)[C@@H]12 [Compound 51l, (3β)-17-[2-[[2-[4-(4-Fluorophenylmethyl)piperazin-1-yl]ethyl]amino]ethyl]-28-norlup-20(29)-en-3-ol, 3-(1-Hydrogen 2,2-Dimethylbutanedioate)] | 48.9% | 38.2 (3) % | – | –
